Data on 14 compounds can be found in patent publication US10711007B2, “Selective inhibitors of protein arginine methyltransferase 5 (PRMT5)” (Prelude Therapeutics, Incorporated, priority 2018, dated 2020).

The test system of experiment [1] is sDMA marks (SmD3me2s) in U-87 MG cells. Briefly: Western blotting for symmetric di-methyl arginine (sDMA) marks in U-87 MG cells. Type of experiment: cell-based. The conditions noted are these: Homo sapiens, 72 h; U-87 MG cell line, 3 days. How it is done: Cell Treatment and Western Blotting for Detecting Symmetric Di-Methyl Arginine (sDMA) Marks
Compound Titration and Cell Culture:
Compounds were dissolved in DMSO to make 10 mM stock and 3-fold series dilutions were further conducted to make working stocks top at 1 mM. Granta-519 cells were maintained in PRMI 1640 (Corning Cellgro, Catalog #: 10-040-CV) supplemented with 10% v/v FBS (GE Healthcare, Catalog #: SH30910.03) and U-87 MG cells were maintained in DMEM (Corning Cellgro, Catalog #: 10-013-CV) with 10% FBS and 2 mM Glutamin (Corning Cellgro, Catalog #25005CV).
To determine enzyme inhibition IC50 values in Granta-519 and U-87 MG cells using Western Blot analysis. One day before experiment, Granta-519 cells were passaged to a density of 0.5×10^6 cells/ml. U-87 MG cells were trypsinized and 4×10^5 cells were seeded into 6-well plates and allow to grow overnight. The next day, Granta-519 cells were spun down at 1,500 rpm for 4 min, resuspend in fresh medium at 0.5×10^6 cells/ml and 3 mL of culture (1.5×10^6 cells) were seeded into 6 well plate. Eight-point, 3-fold serial dilutions of compound working stocks were added to cells (3 ul, 1:1,000 dilution, DMSO concentration was 0.1%; final top concentration at 1 uM) and incubated for 3 days. Cells incubated with DMSO was used as a vehicle control.
Cells were harvested 3 days later, resuspended in 15 uL PBS, lysed in 4% SDS, and homogenized by passing through homogenizer column (Omega Biotek, Catalog #: HCR003). Total protein concentrations were determined by BCA assay (ThermoFisher Scientific, Catalog #: 23225). Lysates were mixed with 5× Laemmli buffer and boiled for 5 min. Forty ug of total protein was separated on SDS-PAGE gels (Bio-Rad, catalog #: 4568083, 4568043), transferred to PVDF membrane, blocked with 5% dry milk (Bio-Rad, Catalog #: 1706404) in TBS with 0.1% v/v Tween 20 (TBST) for 1 hour at room temperature (RT), and incubated with primary antibodies (sDMA: Cell signaling, Catalog #: 13222, 1:3,000; β-Actin: sigma, Catalog #: 1:5,000) in 5% dry milk in TBST at 4° C. overnight. The next day, membranes were washed with TBST, 5×5 min, and incubated with HRP conjugated seconded antibody (GE Healthcare; Catalog #: NA934-1ML, NA931-1ML; 1:5,000) for 2 hours at RT, followed by 5×5 min washes with TBST, and incubation with ECL substrates (Bio-Rad, Catalog #: 1705061, 1705062). Chemiluminescent signal was captured with Fluochem HD2 imager (Proteinsimple). SmD3me2s bands were quantified by ImageJ. Signals were normalized to β-Actin and DMSO control. IC50 values were calculated using Graphpad Prism ([Inhibitor] vs. normalized response-Variable slope).

For a further experiment, the target named is PRMT5/MEP50 complex (Homo sapiens (Human), UniProt O14744). Briefly: Biochemical assay: PRMT5/MEP50 methylation of histone H4 based AcH4-23, SPA readout. The following applies: PRMT5/MEP50 2.5 nM, 300 nM AcH4-23, 1 μM 3H-SAM. How it is done:
Biochemical Assay Protocol
Compounds were solubilized and 3-fold diluted in 100% DMSO. […] Standard reactions were performed in a total volume of 30 μl in assay buffer, with 300 nM histone H4 based AcH4-23 (Anaspec: AS-65002) as substrate. To this was added the PRMT5/MEP50 complex diluted to provide a final assay concentration of 2.5 nM and the compounds were allowed to preincubate for 20 minutes at 37° C. The reaction was initiated by adding S-[3H-methyl]-adenosyl-L-methionine (PerkinElmer: NET155001MC) to final concentration of 1 μM. Following a 30 minutes incubation at 37° C., the reaction was stopped by adding 25 μL of 8M Guanidine HCl. Prepare streptavidin YSI SPA beads (Perkinelmer: RPNQ0012) at 0.3 mg/mL in assay buffer. To each reaction, add 150 μL of SPA beads suspension, and incubated while shaking at room temperature for 30 minutes. The plate was centrifuged at 100×g for 30 second before reading in a scintillation counter. IC50 values were determined by fitting the data to the standard 4 parameters with Hill Slope using GraphPad Prism software.

A further experiment concerns U-87 MG cells. Briefly: Cell proliferation assay (CCK-8, day 10) in U-87 MG cells. Type of experiment: cell-based. The conditions noted are these: Homo sapiens, 240 h, U-87 MG cell line, read-out: Prolif. IC50. As to the method: Cell Proliferation Assay to Determine IC50 in Granta-519 and U-87 MG Cells
One day before experiment, Granta-519 cells were passaged to a density of 0.5×10^6 cells/ml. U-87 MG cells were trypsinized and 2,000 cells were seeded into 96-well plates and allow to grow overnight. On the day of experiment (day 0), Granta-519 Cells were spun down at 1,500 rpm for 4 min, resuspended in fresh medium to 0.5×10^6 cells/ml and 190 ul of cells were added to 96 well plates. For U-87 MG cells, old medium was removed and replaced with 190 uL fresh medium. Compound working stocks were first diluted at 1:50 with fresh medium in 96 well plate and 10 μL of diluted drugs were added to 96 well plates containing cells and incubated for 3 days. DMSO was used a vehicle control.
One day 3, 50 uL of Granta-519 cells were transferred to a new 96-well plate and 140 uL fresh medium was added. For U-87 MG cells, old medium was removed and replaced with 190 uL fresh medium. Compound working stocks were freshly diluted at 1:50 with medium and 10 μL of diluted drugs were added to cells and grow for 3additional days. The same process was repeated on day 6. Cells were allowed to grow for additional 4 days.
On day 10, 100 uL Granta-519 cells were transferred to a new 96 well plate and 10 μL of Cell Counting Kit-8 (CCK-8, Jojindo, CK04-13) solution was added. For U-87 MG cells, old medium was removed and replaced with 100 uL fresh medium and 10 uL CCK-8 solution was added. Plates were incubated in CO2 incubator for 2 hours (Granta-519 cells) or 30 min (U-87 MG cells) and OD450 values were measured with a microplate reader (iMark microplate reader, Bio-Rad). Percentage of viable cells, relative to DMSO vehicle control, were calculated and plotted in Graphpad Prism ([Inhibitor] vs. normalized response-Variable slope) to determine proliferation IC50 values on day 10.

pIC50: −log10 of the molar value.

PRMT5/MEP50 complex, sequence (O14744 whole entry): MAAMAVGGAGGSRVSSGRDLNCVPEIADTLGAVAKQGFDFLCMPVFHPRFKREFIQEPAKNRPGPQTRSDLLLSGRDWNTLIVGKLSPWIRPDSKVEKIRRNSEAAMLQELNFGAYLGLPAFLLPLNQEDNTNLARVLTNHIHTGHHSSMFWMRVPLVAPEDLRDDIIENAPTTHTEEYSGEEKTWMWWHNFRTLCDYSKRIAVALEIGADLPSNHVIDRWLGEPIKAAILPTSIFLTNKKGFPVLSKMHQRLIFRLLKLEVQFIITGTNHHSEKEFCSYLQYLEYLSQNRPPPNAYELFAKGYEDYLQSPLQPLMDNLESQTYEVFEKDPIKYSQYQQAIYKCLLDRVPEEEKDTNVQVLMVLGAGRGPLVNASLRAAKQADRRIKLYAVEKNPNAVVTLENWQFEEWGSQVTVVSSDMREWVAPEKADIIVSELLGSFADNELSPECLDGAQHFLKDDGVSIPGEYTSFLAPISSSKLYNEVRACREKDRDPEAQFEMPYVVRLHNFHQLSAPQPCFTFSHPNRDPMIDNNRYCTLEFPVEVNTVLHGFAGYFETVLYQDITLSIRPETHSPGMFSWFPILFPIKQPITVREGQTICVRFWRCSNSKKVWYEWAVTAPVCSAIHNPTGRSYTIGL
PRMT5/MEP50 complex, sequence (Q9BQA1 whole entry partner): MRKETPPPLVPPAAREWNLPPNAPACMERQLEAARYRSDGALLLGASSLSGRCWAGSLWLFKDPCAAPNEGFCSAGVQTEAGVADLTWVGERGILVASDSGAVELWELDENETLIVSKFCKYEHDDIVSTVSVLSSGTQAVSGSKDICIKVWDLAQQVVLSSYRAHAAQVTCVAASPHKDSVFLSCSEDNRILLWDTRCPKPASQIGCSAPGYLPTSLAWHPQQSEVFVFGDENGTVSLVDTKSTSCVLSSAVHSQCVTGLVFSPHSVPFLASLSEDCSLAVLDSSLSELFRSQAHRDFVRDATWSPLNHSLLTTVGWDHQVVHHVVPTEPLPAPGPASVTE

With `Nc1ncnc2c1ccn2[C@@H]1O[C@H]([C@@H]2OCCc3c2ccc(Cl)c3F)[C@@H](O)[C@H]1O` [Example 84, (2R,3R,4S,5S)-2-(4-amino-7H-pyrrolo[2,3-d]pyrimidin-7-yl)-5-((R)-6-chloro-5-fluoroisochroman-1-yl)tetrahydrofuran-3,4-diol], the pIC50 in experiment [1] was 7.56; at PRMT5/MEP50 complex, 8.36; in the experiment on U-87 MG cells, 7.03.
`Nc1ncnc2c1ccn2[C@@H]1O[C@H]([C@@H]2OC[C@H](F)c3cc(Cl)ccc32)[C@@H](O)[C@H]1O` [Example 95, (2R,3R,4S,5S)-2-(4-amino-7H-pyrrolo[2,3-d]pyrimidin-7-yl)-5-((1R,4R)-6-chloro-4-fluoroisochroman-1-yl)tetrahydrofuran-3,4-diol]: the pIC50 is 7.95 in experiment [1], 8.80 on PRMT5/MEP50 complex and 7.73 with U-87 MG cells.
On to `Nc1ncnc2c1ccn2[C@@H]1O[C@H]([C@@H]2OCCc3ccc(Cl)cc32)[C@@H](O)[C@H]1O` [Example 71, (2R,3R,4S,5S)-2-(4-amino-7H-pyrrolo[2,3-d]pyrimidin-7-yl)-5-((R)-7-chloroisochroman-1-yl)tetrahydrofuran-3,4-diol], for which the pIC50 in experiment [1] is 7.53; against PRMT5/MEP50 complex it was 8.21; in the experiment on U-87 MG cells, 7.14.
On to `Cc1ncnc2c1ccn2[C@@H]1O[C@H]([C@@H]2OCOCc3cc(Cl)ccc32)[C@@H](O)[C@H]1O` [Example 55, (2S,3S,4R,5R)-2-((R)-7-chloro-1,5-dihydrobenzo[e][1,3]dioxepin-1-yl)-5-(4-methyl-7H-pyrrolo[2,3-d]pyrimidin-7-yl)tetrahydrofuran-3,4-diol], for which the pIC50 in experiment [1] is 5.34; at PRMT5/MEP50 complex, 7.93; in the experiment on U-87 MG cells it was 5.00.
`Cc1ncnc2c1ccn2[C@@H]1O[C@H]([C@@H]2OCOc3c2ccc(F)c3F)[C@@H](O)[C@H]1O` [Example 97, (2S,3S,4R,5R)-2-((R)-7,8-difluoro-4H-benzo[d][1,3]dioxin-4-yl)-5-(4-methyl-7H-pyrrolo[2,3-d]pyrimidin-7-yl)tetrahydrofuran-3,4-diol]: the values for the pIC50 (in experiment [1]; against PRMT5/MEP50 complex; with U-87 MG cells) were 7.29, 8.33 and 6.93, respectively.
As to `Nc1ncnc2c1ccn2[C@@H]1O[C@H]([C@@H]2OCCc3cc(Cl)sc32)[C@@H](O)[C@H]1O` [Example 90, (2R,3R,4S,5S)-2-(4-amino-7H-pyrrolo[2,3-d]pyrimidin-7-yl)-5-((S)-2-chloro-4,7-dihydro-5H-thieno[2,3-c]pyran-7-yl)tetrahydrofuran-3,4-diol], the values for the pIC50 (in experiment [1]; against PRMT5/MEP50 complex; with U-87 MG cells) were 7.94, 8.66 and 7.48, respectively.
In the case of `Cc1ncnc2c1ccn2[C@@H]1O[C@H]([C@@H]2OCCc3cc(F)c(F)cc32)[C@@H](O)[C@H]1O` [Example 74, (2S,3S,4R,5R)-2-((R)-6,7-difluoroisochroman-1-yl)-5-(4-methyl-7H-pyrrolo[2,3-d]pyrimidin-7-yl)tetrahydrofuran-3,4-diol], the pIC50 is 8.14 against PRMT5/MEP50 complex and 7.18 in the experiment on U-87 MG cells.
`Cc1ncnc2c1ccn2[C@@H]1O[C@H]([C@@H]2OCCc3ccc(Cl)cc32)[C@@H](O)[C@H]1O` [Example 70, (2S,3S,4R,5R)-2-((R)-7-chloroisochroman-1-yl)-5-(4-methyl-7H-pyrrolo[2,3-d]pyrimidin-7-yl)tetrahydrofuran-3,4-diol]: the values for the negative-log IC50 (pIC50) (in experiment [1]; against PRMT5/MEP50 complex; with U-87 MG cells) were 6.42, 6.52 and 6.34, respectively.
The matching figures for `Cc1ncnc2c1ccn2[C@@H]1O[C@H]([C@@H]2OCCc3c2ccc(Cl)c3F)[C@@H](O)[C@H]1O` [Example 83, (2S,3S,4R,5R)-2-((R)-6-chloro-5-fluoroisochroman-1-yl)-5-(4-methyl-7H-pyrrolo[2,3-d]pyrimidin-7-yl)tetrahydrofuran-3,4-diol]: 6.70, 7.88 and 6.42.
With `Nc1ncnc2c1ccn2[C@@H]1O[C@H]([C@@H]2OCCc3c(Cl)cccc32)[C@@H](O)[C@H]1O` [Example 72, (2R,3R,4S,5S)-2-(4-amino-7H-pyrrolo[2,3-d]pyrimidin-7-yl)-5-((R)-5-chloroisochroman-1-yl)tetrahydrofuran-3,4-diol], the pIC50 on PRMT5/MEP50 complex is 8.53; with U-87 MG cells, 7.11.
Take `Nc1ncnc2c1c(F)cn2[C@@H]1O[C@H]([C@@H]2OCCc3cc(Cl)ccc32)[C@@H](O)[C@H]1O` [Example 86, (2R,3R,4S,5S)-2-(4-amino-5-fluoro-7H-pyrrolo[2,3-d]pyrimidin-7-yl)-5-((R)-6-chloroisochroman-1-yl)tetrahydrofuran-3,4-diol]: the pIC50 in experiment [1] was 8.27; at PRMT5/MEP50 complex it was 8.70; in the experiment on U-87 MG cells it was 7.89.
Consider `Nc1ncnc2c1ccn2[C@@H]1O[C@H]([C@@H]2OCCc3cc(Cl)c(Cl)cc32)[C@@H](O)[C@H]1O` [Example 88, (2R,3R,4S,5S)-2-(4-amino-7H-pyrrolo[2,3-d]pyrimidin-7-yl)-5-((R)-6,7-dichloroisochroman-1-yl)tetrahydrofuran-3,4-diol], for which the pIC50 was 7.73 in experiment [1], 8.80 on PRMT5/MEP50 complex and 7.22 with U-87 MG cells.
With `Nc1ncnc2c1ccn2[C@@H]1O[C@H]([C@@H]2OCCc3cc(F)c(F)cc32)[C@@H](O)[C@H]1O` [Example 73, (2R,3R,4S,5S)-2-(4-amino-7H-pyrrolo[2,3-d]pyrimidin-7-yl)-5-((R)-6,7-difluoroisochroman-1-yl)tetrahydrofuran-3,4-diol], the results for the pIC50 against PRMT5/MEP50 complex and in the experiment on U-87 MG cells were 8.84 and 8.04, respectively.
As for `Cc1ncnc2c1ccn2[C@@H]1O[C@H]([C@@H]2OCCc3c(Cl)cccc32)[C@@H](O)[C@H]1O` [Example 75, (2S,3S,4R,5R)-2-((R)-5-chloroisochroman-1-yl)-5-(4-methyl-7H-pyrrolo[2,3-d]pyrimidin-7-yl)tetrahydrofuran-3,4-diol], the negative-log IC50 (pIC50) on PRMT5/MEP50 complex was 7.82; in the experiment with U-87 MG cells, 6.47.

By pIC50 is commonly meant the negative decadic logarithm of the IC50, by convention in mol/L.
